Test results taken from patent US11000033B2, “Ketone or oxime compound, and herbicide” (NISSAN CHEMICAL CORPORATION, priority 2014, dated 2021).

Tests used:
Format in all cases: in vivo
[1] = tested on: Echinochloa oryzacola Vasing.; experiment: Test Example 1: herbicidal activity, application before weed generation in submerged conditions (symbol A); conditions: application herbicide amount 320 g/ha
Method in brief: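 Greenhouse growth at 25–30 °C lasted 3 weeks after treatment, when each weed was graded 0–5 by herbicidal ratio. Treatment was a diluted emulsion applied to the water surface of 4 cm-submerged alluvial soil on the sowing day.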

[2] = tested on: transplanted rice plant; experiment: Test Example 1: effect on crop, application before weed generation in submerged conditions (symbol a); conditions: application herbicide amount 320 g/ha
Method in brief: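 Rice at 2.5 leaf stage transplanted into submerged soil (4 cm depth) sown with three weed species; herbicide applied before weed emergence.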

[3] = tested on: Echinochloa oryzacola Vasing.; experiment: Test Example 2: herbicidal activity, application during weed generation in submerged conditions (symbol A); conditions: Table 23; application herbicide amount 320 g/ha; grade 0-5 by criteria of Test Example 1
Method in brief: (§1)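 Each pot contained alluvial soil under 4 cm of water with seeds of all three weeds sown together. Following growth at 25° C. to 30° C. to the one- to two-leaf stage, the floodwater received diluted emulsion at a predetermined amount; visual assessment followed at 3 weeks.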

[4] = tested on: Monochoria vaginalis; experiment: Test Example 2: herbicidal activity, application during weed generation in submerged conditions (symbol C); conditions: Table 23; application herbicide amount 320 g/ha; grade 0-5 by criteria of Test Example 1
Method in brief: as §1

[5] = tested on: directly sowed rice plant; experiment: Test Example 3: effect on crop by foliage application, Wagner pot (symbol b); conditions: application herbicide amount 320 g/ha
Method in brief: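 Wagner pot (1/10000 are), alluvial soil, submerged 0.1–0.5 cm; sown E. crus-galli var. crus-galli, L. chinensis, C. difformis, rice; greenhouse 25–30 °C.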

[6] = tested on: Setaria viridis; experiment: Test Example 4: herbicidal effect by soil treatment (symbol G)
Method in brief: (§2)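 Seeds were sown in sterilized diluvial soil, covered with about 1.5 cm of soil, and the soil surface was sprayed with a water-diluted emulsion of the compound at a predetermined rate. Plants grew in a greenhouse at 25° C. to 30° C.; effects were scored visually 3 weeks after application.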

[7] = tested on: Avena fatua; experiment: Test Example 4: herbicidal effect by soil treatment (symbol I)
Method in brief: as §2

[8] = tested on: rapeseed; experiment: Test Example 4: effect on crop by soil treatment (symbol g); conditions: for g: rapeseed, effect on crop grade: application herbicide amount 320 g/ha; for g: rapeseed, effect grade on crop: 320 g/ha
Method in brief: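 Crop seed is sown in spots together with several weed species in a box of sterilized diluvial soil. It is covered by about 1.5 cm of soil and kept in a greenhouse held between 25° C. and 30° C.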

[9] = tested on: Digitaria ciliaris; experiment: Test Example 5: herbicidal effect by foliage application, plastic box (symbol F); conditions: 320 g/ha, 3 weeks after application
Method in brief: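 Post-emergence spray; diluvial soil (sterilized), ~1.5 cm seed cover; greenhouse 25–30° C; 14-day-old plants; water-diluted emulsion at predetermined dose; visual score at 3 wk post-treatment.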

[10] = tested on: corn; experiment: Test Example 5: effect on crop by foliage application, plastic box (symbol c); conditions: 320 g/ha, 3 weeks after application
Method in brief: (§3)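 A greenhouse held between 25° C. and 30° C. was used to grow plants sown spot-wise, beneath ~1.5 cm of soil, in boxes of sterilized diluvial soil.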

[11] = tested on: wheat; experiment: Test Example 5: effect on crop by foliage application, plastic box (symbol e); conditions: 320 g/ha, 3 weeks after application
Method in brief: as §3

[12] = application herbicide amount 320 g/ha

| SMILES | Herbicidal effect grade, A: Echinochloa oryzacola Vasing. [1] | Effect grade on crop, a: transplanted rice plant [2] | Herbicidal effect grade, A: Echinochloa oryzacola Vasing. [3] | Herbicidal effect grade, C: Monochoria vaginalis [4] | effect on crop b (directly sowed rice plant), grade 0-5 [5] | G: Setaria viridis, herbicidal effect grade [6, 12] | I: Avena fatua, herbicidal effect grade [7, 12] | g: rapeseed, effect on crop grade [8] | F: Digitaria ciliaris, herbicidal effect grade [9] | c: corn, effect on crop grade [10] | e: wheat, effect on crop grade [11] | G (Setaria viridis) herbicidal effect grade [6, 12] | I (Avena fatua) herbicidal effect grade [7, 12] | G: Setaria viridis, herbicidal effect grade ([6]; 320 g/ha) | I: Avena fatua, herbicidal effect grade ([7]; 320 g/ha) | g: rapeseed, effect grade on crop [8] | F: Digitaria ciliaris, herbicidal effect (criteria 0-5) [9] | c: corn, effect on crop (criteria 0-5) [10] | e: wheat, effect on crop (criteria 0-5) [11] |
| --- | --- | --- | --- | --- | --- | --- | --- | --- | --- | --- | --- | --- | --- | --- | --- | --- | --- | --- | --- |
| CON=CC1CC(O)=C(c2c(C)cc(C)cc2C)C1=O (mixture of isomers) [3-001] | 0 (Herbicidal ratio of 5% or lower (almost no effect)) | 0 (Herbicidal ratio of 5% or lower (almost no effect)) | 0 (Herbicidal ratio of 5% or lower (almost no effect)) | 0 (Herbicidal ratio of 5% or lower (almost no effect)) | 2 (Herbicidal ratio of 20% or higher and lower than 40%) | 0 (Herbicidal ratio of 5% or lower (almost no effect)) | 0 (Herbicidal ratio of 5% or lower (almost no effect)) | 0 (Herbicidal ratio of 5% or lower (almost no effect)) | 4 (Herbicidal ratio of 70% or higher and lower than 90%) | 2 (Herbicidal ratio of 20% or higher and lower than 40%) | 0 (Herbicidal ratio of 5% or lower (almost no effect)) | – | – | – | – | – | – | – | – |
| CON=C(C)C1CC(O)=C(c2c(C)cc(C)cc2C)C1=O (mixture of isomers) [3-002] | 0 (Herbicidal ratio of 5% or lower (almost no effect)) | 0 (Herbicidal ratio of 5% or lower (almost no effect)) | 0 (Herbicidal ratio of 5% or lower (almost no effect)) | 0 (Herbicidal ratio of 5% or lower (almost no effect)) | 0 (Herbicidal ratio of 5% or lower (almost no effect)) | 0 (Herbicidal ratio of 5% or lower (almost no effect)) | 0 (Herbicidal ratio of 5% or lower (almost no effect)) | 0 (Herbicidal ratio of 5% or lower (almost no effect)) | 0 (Herbicidal ratio of 5% or lower (almost no effect)) | 0 (Herbicidal ratio of 5% or lower (almost no effect)) | 0 (Herbicidal ratio of 5% or lower (almost no effect)) | – | – | – | – | – | – | – | – |
| CON=C(C)CC1CC(OC(=O)OC)=C(c2c(C)cc(C)cc2C)C1=O (stereo not shown) [1-014] | 5 (Herbicidal ratio of 90% or more (almost completely withered)) | 5 (Herbicidal ratio of 90% or more (almost completely withered)) | 5 (Herbicidal ratio of 90% or more (almost completely withered)) | 3 (Herbicidal ratio of 40% or higher and lower than 70%) | 5 (Herbicidal ratio of 90% or more (almost completely withered)) | – | – | – | 5 (Herbicidal ratio of 90% or more (almost completely withered)) | 5 (Herbicidal ratio of 90% or more (almost completely withered)) | 5 (Herbicidal ratio of 90% or more (almost completely withered)) | 3 (Herbicidal ratio of 40% or higher and lower than 70%) | 5 (Herbicidal ratio of 90% or more (almost completely withered)) | – | – | – | – | – | – |
| CON=C(C)CC1CC(OS(=O)(=O)CCCCl)=C(c2c(C)cc(C)cc2C)C1=O (stereo not shown) [1-142] | 5 (Herbicidal ratio of 90% or more (almost completely withered)) | 5 (Herbicidal ratio of 90% or more (almost completely withered)) | 5 (Herbicidal ratio of 90% or more (almost completely withered)) | – | 5 (Herbicidal ratio of 90% or more (almost completely withered)) | – | – | – | – | – | – | – | – | 5 (Herbicidal ratio of 90% or more (almost completely withered)) | 3 (Herbicidal ratio of 40% or higher and lower than 70%) | 3 (Herbicidal ratio of 40% or higher and lower than 70%) | 5 (Herbicidal ratio of 90% or more (almost completely withered)) | 5 (Herbicidal ratio of 90% or more (almost completely withered)) | 4 (Herbicidal ratio of 70% or higher and lower than 90%) |
| CON=C(C)CC1CC(OC(=O)N2CCCCC2)=C(c2c(C)cc(C)cc2C)C1=O (stereo not shown) [1-151] | 5 (Herbicidal ratio of 90% or more (almost completely withered)) | 4 (Herbicidal ratio of 70% or higher and lower than 90%) | 5 (Herbicidal ratio of 90% or more (almost completely withered)) | 2 (Herbicidal ratio of 20% or higher and lower than 40%) | 5 (Herbicidal ratio of 90% or more (almost completely withered)) | – | – | – | – | – | – | – | – | – | 3 (Herbicidal ratio of 40% or higher and lower than 70%) | 0 (Herbicidal ratio of 5% or lower (almost no effect)) | 5 (Herbicidal ratio of 90% or more (almost completely withered)) | 4 (Herbicidal ratio of 70% or higher and lower than 90%) | 3 (Herbicidal ratio of 40% or higher and lower than 70%) |
| CON=C(C)CC1CC(OC(=O)C(C)Oc2ccc(Oc3ccc(Cl)cc3Cl)cc2)=C(c2c(C)cc(C)cc2C)C1=O (stereo not shown) [1-163] | 5 (Herbicidal ratio of 90% or more (almost completely withered)) | 5 (Herbicidal ratio of 90% or more (almost completely withered)) | 5 (Herbicidal ratio of 90% or more (almost completely withered)) | 3 (Herbicidal ratio of 40% or higher and lower than 70%) | – | – | – | – | 5 (Herbicidal ratio of 90% or more (almost completely withered)) | 4 (Herbicidal ratio of 70% or higher and lower than 90%) | 5 (Herbicidal ratio of 90% or more (almost completely withered)) | – | – | 5 (Herbicidal ratio of 90% or more (almost completely withered)) | 3 (Herbicidal ratio of 40% or higher and lower than 70%) | 4 (Herbicidal ratio of 70% or higher and lower than 90%) | – | – | – |
| CCC(=O)CCC1CC(OC)=C(c2c(C)cc(C)cc2C)C1=O (stereo not shown) [5-002] | 0 (Herbicidal ratio of 5% or lower (almost no effect)) | 0 (Herbicidal ratio of 5% or lower (almost no effect)) | 0 (Herbicidal ratio of 5% or lower (almost no effect)) | 0 (Herbicidal ratio of 5% or lower (almost no effect)) | 0 (Herbicidal ratio of 5% or lower (almost no effect)) | 0 (Herbicidal ratio of 5% or lower (almost no effect)) | 0 (Herbicidal ratio of 5% or lower (almost no effect)) | – | 0 (Herbicidal ratio of 5% or lower (almost no effect)) | 0 (Herbicidal ratio of 5% or lower (almost no effect)) | 0 (Herbicidal ratio of 5% or lower (almost no effect)) | – | – | – | – | – | – | – | – |
| CCc1cc(C)cc(C)c1C1=C(O)CC(CC(C)=NOC)C1=O (stereo not shown) [6-007] | 5 (Herbicidal ratio of 90% or more (almost completely withered)) | 5 (Herbicidal ratio of 90% or more (almost completely withered)) | 5 (Herbicidal ratio of 90% or more (almost completely withered)) | 2 (Herbicidal ratio of 20% or higher and lower than 40%) | 5 (Herbicidal ratio of 90% or more (almost completely withered)) | 5 (Herbicidal ratio of 90% or more (almost completely withered)) | 4 (Herbicidal ratio of 70% or higher and lower than 90%) | – | 5 (Herbicidal ratio of 90% or more (almost completely withered)) | 5 (Herbicidal ratio of 90% or more (almost completely withered)) | 5 (Herbicidal ratio of 90% or more (almost completely withered)) | – | – | – | – | – | – | – | – |
